How the values were obtained:
Test in all cases: relative viability (nuclei count vs DMSO), 5 days (fraction); higher = more cells survive
[1] = compound: CN1C=C(C2=CC=CC=C21)/C=C\3/C4=C(C=CC=N4)NC3=O + CC(=O)c1c(C)c2cnc(Nc3ccc(N4CCNCC4)cn3)nc2n(C2CCCC2)c1=O [Palbociclib] (partner 0.5 µM)
How it was run: (§1)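 After 5 days of treatment, lung cancer cells in 1536-well plates were fixed and stained in a single step (final 0.05% Triton X-100, 1% formaldehyde, 1 ug/ml Hoechst) and their nuclei counted on 4× images. Treatment had been applied by pin tool the day after seeding as one drug alone or as a fixed anchor-drug dose with five library-drug doses (not always all listed) in √10 steps. Relative viability is the nuclei count of treated wells divided by that of vehicle wells, and values are medians of duplicate plates.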

[2] = compound: CN1C=C(C2=CC=CC=C21)/C=C\3/C4=C(C=CC=N4)NC3=O + CS(=O)(=O)CCNCc1ccc(-c2ccc3ncnc(Nc4ccc(OCc5cccc(F)c5)c(Cl)c4)c3c2)o1 [Lapatinib] (partner 2 µM)
How it was run: as §1

[3] = compound: CN1C=C(C2=CC=CC=C21)/C=C\3/C4=C(C=CC=N4)NC3=O + C[C@]1(O)C[C@@H](c2nc(-c3ccc4ccc(-c5ccccc5)nc4c3)c3c(N)nccn32)C1 [Linsitinib] (partner 1 µM)
How it was run: as §1

[4] = compound: CN1C=C(C2=CC=CC=C21)/C=C\3/C4=C(C=CC=N4)NC3=O + O=C(c1cc(Cc2n[nH]c(=O)c3ccccc23)ccc1F)N1CCN(C(=O)C2CC2)CC1 [Olaparib] (partner 8 µM)
How it was run: as §1

Cell Line	relative viability ([1]; first compound 0.02 µM)	relative viability ([1]; first compound 0.06325 µM)	relative viability ([1]; first compound 0.2 µM)	relative viability ([1]; first compound 0.6325 µM)	relative viability ([1]; first compound 2 µM)	relative viability ([2]; first compound 0.02 µM)	relative viability ([2]; first compound 0.06325 µM)	relative viability ([2]; first compound 0.2 µM)	relative viability ([2]; first compound 0.6325 µM)	relative viability ([2]; first compound 2 µM)	relative viability ([3]; first compound 0.02 µM)	relative viability ([3]; first compound 0.06325 µM)	relative viability ([3]; first compound 0.2 µM)	relative viability ([3]; first compound 0.6325 µM)	relative viability ([3]; first compound 2 µM)	relative viability ([4]; first compound 0.02 µM)	relative viability ([4]; first compound 0.06325 µM)	relative viability ([4]; first compound 0.2 µM)	relative viability ([4]; first compound 0.6325 µM)	relative viability ([4]; first compound 2 µM)
NCI-H661	0.425	0.406	0.343	0.389	0.37	0.601	0.574	0.46	0.427	0.54	0.689	0.536	0.578	0.486	0.559	0.825	0.722	0.791	0.89	0.822
NCI-H1944	0.28	0.351		0.267	0.314	0.719	0.743		0.759	0.727	1.19	1.18		1.32	1.23	0.382	0.368		0.377	0.403
NCI-H23	0.506	0.408	0.417	0.499	0.486	0.926	0.952		0.892	0.991	0.614	0.648		0.655	0.631	0.253	0.357	0.218	0.293	0.262
NCI-H1648	0.308	0.305	0.233	0.285	0.28											1.26	1.01	1.02	0.74	0.496
NCI-H522	1.04	1.01	1.08	0.874	1.06											0.615	0.685	0.679	0.556	0.691
HCC-366	0.239	0.281	0.338	0.397	0.304	0.816	0.976	0.952	1.15	1.08	0.616	0.566	0.656	0.575	0.51	0.315	0.287	0.36	0.372	0.288
EBC-1						0.197	0.201	0.177	0.232	0.2	1.03	0.873	0.723	0.922	0.971	0.728	0.68	0.623	0.625	0.585
ChaGo-K-1	0.922	0.936	0.853	0.89	0.909											0.426	0.405	0.414	0.387	0.339
LCLC-97TM1		0.156	0.201	0.203	0.261	0.696			0.882	0.948	0.164			0.203	0.179		0.348	0.309	0.314	0.289
NCI-H1299						0.979	0.974	0.989	1.03	0.979	1.07	1.03	1.06	1.06	1.05	0.96	0.97	1	1	0.952
EMC-BAC-2	0.471	0.513	0.504	0.521	0.535	0.883	0.91	0.934	0.836	0.921	0.787	0.826	0.806	0.852	0.867	0.354	0.445	0.488	0.418	0.383
NCI-H441	0.199	0.163	0.189	0.194	0.193						0.634	0.588	0.494	0.424	0.57	0.52	0.47	0.611	0.405	0.588
LCLC-103H	0.493	0.411	0.479	0.471	0.472						1.13	1.13	1.07	1.13	1.11	0.764	0.727	0.801	0.825	0.808
HOP-62	0.438	0.415		0.449	0.483	1.28	1.21	0.688	0.882	1.06	0.923	0.961	1.07	1.03	1.02	0.537	0.509		0.968	0.629
IA-LM						0.947	0.617	0.546	0.65	0.448	0.85	0.668	0.477	0.762	0.771	0.726	0.726	0.749	0.896	0.802
NCI-H596						1.05	1.03	0.889	1.02	0.99	0.976	1.08	0.934	0.935	1.05	0.545	0.744	0.648	0.558	0.554
A549						1.08	0.873	0.91	0.932	1.05	0.596	0.512		0.543	0.586	0.325	0.352		0.278	0.355
NCI-H2170	0.293	0.408	0.349	0.392	0.434		0.253	0.233	0.264	0.284						0.652	0.559	0.628	0.517	0.578
NCI-H1563						1.2	0.977	0.912	0.926	1.02	1.24	1.17	1.11	1.17	1.26					
Calu-6						1.15	1	1	0.968	1.01	0.926	0.903	0.919	0.975	0.915	0.504	0.528	0.569	0.488	0.787
NCI-H1650	0.299	0.274	0.267	0.299	0.353	0.854	0.793	0.574	0.768	0.842						0.843	0.69	0.718	0.714	0.749
NCI-H2342	0.552	0.557	0.519	0.537	0.485											0.49	0.449	0.47	0.453	0.461

Source: the supplement of paper PMC10307832
